In patent US8822517B2, “Arylosulfonamides for the treatment of CNS diseases” (Adamed SP. Z O.O., priority 2010, dated 2014):
Like-named read-outs stand apart in the source and are kept apart here.

What was measured:
[1] = target: histaminergic H1 receptor (Homo sapiens, UniProt P35367); experiment: Binding assay H1 (h), [3H]pyrilamine, HEK-293 cells; design: expressed in transfected cells; host or cells: HEK-293 cells; settings: read-out: H1 [%]
In short: (§1)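 At 1×10^−6 M, compounds were assessed for their effect on specific radioligand binding, computed as total less nonspecific binding (excess unlabelled ligand present).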

muscarinic M3 receptor = target: T1, muscarinic M3 receptor (Homo sapiens, UniProt P20309); experiment: Binding assay M3 (h), [3H]4-DAMP, CHO cells; settings: read-out: M3 [%]
T1 construct: expressed in transfected cells; host or cells: CHO cells
T1 sequence (P20309 whole entry): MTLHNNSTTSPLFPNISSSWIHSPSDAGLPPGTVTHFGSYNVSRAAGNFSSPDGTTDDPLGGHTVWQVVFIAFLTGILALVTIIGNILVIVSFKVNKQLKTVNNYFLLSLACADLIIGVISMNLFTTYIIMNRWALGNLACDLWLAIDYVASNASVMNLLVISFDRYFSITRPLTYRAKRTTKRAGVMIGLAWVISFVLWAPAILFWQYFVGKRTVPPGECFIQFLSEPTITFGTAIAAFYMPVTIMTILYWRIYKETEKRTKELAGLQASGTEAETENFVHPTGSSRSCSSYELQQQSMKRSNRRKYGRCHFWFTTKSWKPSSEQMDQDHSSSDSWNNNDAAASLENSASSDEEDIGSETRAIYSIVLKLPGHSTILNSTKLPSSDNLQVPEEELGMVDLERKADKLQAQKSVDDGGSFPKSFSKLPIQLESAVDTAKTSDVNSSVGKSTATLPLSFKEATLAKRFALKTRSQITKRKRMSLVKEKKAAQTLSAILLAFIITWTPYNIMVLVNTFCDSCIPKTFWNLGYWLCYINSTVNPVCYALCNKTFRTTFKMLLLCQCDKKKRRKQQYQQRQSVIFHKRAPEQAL
In short: as §1

[2] = target: T2, serotoninergic 5-HT6 receptor (Homo sapiens, UniProt P50406); experiment: Binding assay 5-HT6 (h), [3H]LSD, CHO cells; design: expressed in transfected cells; host or cells: CHO cells; settings: read-out: 5-HT6
T2 sequence (P50406 whole entry): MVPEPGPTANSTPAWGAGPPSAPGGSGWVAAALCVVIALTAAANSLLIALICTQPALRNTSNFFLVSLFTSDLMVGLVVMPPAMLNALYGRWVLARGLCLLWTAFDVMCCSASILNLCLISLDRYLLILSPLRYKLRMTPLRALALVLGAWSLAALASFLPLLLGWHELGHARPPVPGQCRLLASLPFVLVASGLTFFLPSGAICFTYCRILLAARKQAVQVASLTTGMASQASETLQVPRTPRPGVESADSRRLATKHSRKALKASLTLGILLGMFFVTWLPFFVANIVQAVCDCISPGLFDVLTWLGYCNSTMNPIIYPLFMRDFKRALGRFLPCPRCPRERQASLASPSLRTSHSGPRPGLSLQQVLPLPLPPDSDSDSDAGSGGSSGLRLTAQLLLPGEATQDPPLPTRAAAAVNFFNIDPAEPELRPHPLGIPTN
In short: as §1

dopaminergic D3 receptor = dopaminergic D3 receptor (Homo sapiens, UniProt P35462); experiment: Binding assay D3 (h), [3H]methyl-spiperone, CHO cells; design: expressed in transfected cells; host or cells: CHO cells; settings: read-out: D3 [%]
Chain of dopaminergic D3 receptor (P35462 whole entry): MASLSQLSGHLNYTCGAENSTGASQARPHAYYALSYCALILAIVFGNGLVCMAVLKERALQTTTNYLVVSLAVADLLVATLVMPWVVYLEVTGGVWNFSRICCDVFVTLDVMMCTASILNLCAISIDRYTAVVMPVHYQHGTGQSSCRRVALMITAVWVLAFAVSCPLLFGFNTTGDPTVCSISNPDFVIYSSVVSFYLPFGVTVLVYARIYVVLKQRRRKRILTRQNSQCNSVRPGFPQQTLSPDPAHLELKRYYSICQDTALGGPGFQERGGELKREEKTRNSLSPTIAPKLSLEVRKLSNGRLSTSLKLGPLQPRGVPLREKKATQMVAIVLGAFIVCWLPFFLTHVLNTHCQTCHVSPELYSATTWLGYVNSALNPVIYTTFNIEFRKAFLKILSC
In short: as §1

[3] = target: T3, serotoninergic 5-HT1A receptor (Homo sapiens, UniProt P08908); experiment: Binding assay 5-HT1A (h), [3H]8-OH-DPAT, HEK-293 cells; design: expressed in transfected cells; host or cells: HEK-293 cells; settings: read-out: 5-HT1A
T3 sequence (P08908 1-422): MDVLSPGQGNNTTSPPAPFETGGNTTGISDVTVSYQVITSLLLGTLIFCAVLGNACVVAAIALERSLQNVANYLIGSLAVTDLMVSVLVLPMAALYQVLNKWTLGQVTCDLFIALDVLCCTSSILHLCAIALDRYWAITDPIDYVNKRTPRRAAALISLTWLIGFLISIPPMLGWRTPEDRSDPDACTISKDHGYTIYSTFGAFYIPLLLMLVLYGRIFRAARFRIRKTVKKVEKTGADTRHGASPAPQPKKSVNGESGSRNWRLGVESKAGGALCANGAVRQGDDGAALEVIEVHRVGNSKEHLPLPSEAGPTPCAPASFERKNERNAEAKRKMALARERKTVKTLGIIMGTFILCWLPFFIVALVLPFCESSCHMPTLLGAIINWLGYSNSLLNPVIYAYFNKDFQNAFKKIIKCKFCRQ
In short: as §1

[4] = target: T4, serotoninergic 5-HT7 receptor (Homo sapiens, UniProt P34969); experiment: Binding assay 5-HT7 (h), [3H]LSD, CHO cells; design: expressed in transfected cells; host or cells: CHO cells; settings: read-out: 5-HT7
In short: as §1

hERG potassium channels = hERG potassium channels (Homo sapiens, UniProt Q12809); experiment: hERG potassium channel block, electrophysiology (IonWorks Quattro), CHO cells; settings: % block of hERG current, cloned hERG channels in CHO cells, IonWorks Quattro
Chain of hERG potassium channels (Q12809 whole entry): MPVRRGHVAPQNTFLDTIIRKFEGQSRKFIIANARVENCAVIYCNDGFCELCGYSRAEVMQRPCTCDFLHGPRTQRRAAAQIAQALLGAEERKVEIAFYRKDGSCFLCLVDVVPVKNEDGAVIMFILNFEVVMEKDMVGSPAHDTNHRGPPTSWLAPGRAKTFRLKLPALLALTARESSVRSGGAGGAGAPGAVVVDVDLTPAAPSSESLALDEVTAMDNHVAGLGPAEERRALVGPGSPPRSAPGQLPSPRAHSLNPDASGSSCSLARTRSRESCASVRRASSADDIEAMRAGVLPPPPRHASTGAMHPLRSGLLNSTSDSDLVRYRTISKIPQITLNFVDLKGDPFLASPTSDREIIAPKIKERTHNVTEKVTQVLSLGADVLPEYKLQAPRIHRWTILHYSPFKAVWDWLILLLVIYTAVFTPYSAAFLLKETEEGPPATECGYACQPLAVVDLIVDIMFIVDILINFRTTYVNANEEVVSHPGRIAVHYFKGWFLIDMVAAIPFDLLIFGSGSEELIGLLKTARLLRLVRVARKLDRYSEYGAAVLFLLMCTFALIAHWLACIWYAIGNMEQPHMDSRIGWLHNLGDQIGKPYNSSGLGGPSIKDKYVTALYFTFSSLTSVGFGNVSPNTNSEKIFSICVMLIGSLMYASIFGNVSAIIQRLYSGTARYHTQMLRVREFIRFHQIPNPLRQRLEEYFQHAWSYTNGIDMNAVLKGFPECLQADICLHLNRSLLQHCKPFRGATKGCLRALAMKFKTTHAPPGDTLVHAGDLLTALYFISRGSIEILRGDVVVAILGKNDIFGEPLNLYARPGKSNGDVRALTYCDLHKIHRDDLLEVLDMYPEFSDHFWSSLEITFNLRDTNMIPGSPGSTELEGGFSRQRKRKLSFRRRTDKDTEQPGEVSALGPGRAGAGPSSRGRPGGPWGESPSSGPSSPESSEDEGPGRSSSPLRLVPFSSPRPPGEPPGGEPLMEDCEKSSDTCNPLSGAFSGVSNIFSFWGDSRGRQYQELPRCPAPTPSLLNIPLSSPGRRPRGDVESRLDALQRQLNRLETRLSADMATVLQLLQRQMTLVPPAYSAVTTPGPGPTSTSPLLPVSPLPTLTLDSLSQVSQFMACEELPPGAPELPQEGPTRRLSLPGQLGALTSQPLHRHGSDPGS

[5] = target: T2, serotoninergic 5-HT6 receptor; experiment: Cellular functional assay, serotoninergic 5-HT6 receptor (agonism/antagonism); assay type: cell-based; settings: for inhibition at 1 µM: read-out: 5-HT6-antag. [%]
Procedure: (§2) The compounds were tested at the concentration of 1×10^−6M.
(§3) In the Tables ag refers to agonism, and antag to antagonism).

sigma σ receptor = experiment: Binding assay σ (non-selective), [3H]DTG, rat cerebral cortex; settings: percent inhibition of control specific binding; compounds tested at 1×10^−6 M
In short: as §1

[6] = target: T4, serotoninergic 5-HT7 receptor; experiment: Cellular functional assay, serotoninergic 5-HT7 receptor (agonism/antagonism); assay type: cell-based; settings: for activation at 1 µM: agonist effect, percent of control specific agonist response, compounds tested at 1×10^−6M, read-out: 5-HT7-ag [%]; for inhibition at 1 µM: read-out: 5-HT7-antag. [%]
Procedure: as §2, §3

adrenergic α1 receptor = experiment: Binding assay α1 (non-selective), [3H]prazosin, rat cerebral cortex; settings: percent inhibition of control specific binding; compounds tested at 1×10^−6 M
In short: as §1

adrenergic α2C receptor = target: T5, adrenergic α2C receptor (Homo sapiens, UniProt P18825); experiment: Binding assay α2C (h), [3H]RX 821002, CHO cells; design: expressed in transfected cells; host or cells: CHO cells; settings: read-out: α2C [%]
T5 sequence (P18825 1-462): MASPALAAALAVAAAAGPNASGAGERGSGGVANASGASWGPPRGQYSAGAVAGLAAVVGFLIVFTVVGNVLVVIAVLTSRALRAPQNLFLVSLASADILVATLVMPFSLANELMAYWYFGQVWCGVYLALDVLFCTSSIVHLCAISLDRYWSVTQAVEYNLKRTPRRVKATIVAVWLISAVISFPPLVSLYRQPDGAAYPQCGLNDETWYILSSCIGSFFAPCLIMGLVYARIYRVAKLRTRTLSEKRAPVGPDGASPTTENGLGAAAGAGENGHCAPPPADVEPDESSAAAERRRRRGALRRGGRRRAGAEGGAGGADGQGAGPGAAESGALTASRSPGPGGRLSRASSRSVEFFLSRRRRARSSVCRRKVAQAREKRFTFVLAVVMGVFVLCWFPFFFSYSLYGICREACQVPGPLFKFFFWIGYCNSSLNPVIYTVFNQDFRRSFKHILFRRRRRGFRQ
In short: as §1

[7] = target: T6, serotonine transporter (SERT) receptor (Homo sapiens, UniProt P31645); experiment: Binding assay SERT (h), [3H]imipramine, CHO cells; settings: read-out: SERT [%]
T6 construct: expressed in transfected cells; host or cells: CHO cells
T6 sequence (P31645 whole entry): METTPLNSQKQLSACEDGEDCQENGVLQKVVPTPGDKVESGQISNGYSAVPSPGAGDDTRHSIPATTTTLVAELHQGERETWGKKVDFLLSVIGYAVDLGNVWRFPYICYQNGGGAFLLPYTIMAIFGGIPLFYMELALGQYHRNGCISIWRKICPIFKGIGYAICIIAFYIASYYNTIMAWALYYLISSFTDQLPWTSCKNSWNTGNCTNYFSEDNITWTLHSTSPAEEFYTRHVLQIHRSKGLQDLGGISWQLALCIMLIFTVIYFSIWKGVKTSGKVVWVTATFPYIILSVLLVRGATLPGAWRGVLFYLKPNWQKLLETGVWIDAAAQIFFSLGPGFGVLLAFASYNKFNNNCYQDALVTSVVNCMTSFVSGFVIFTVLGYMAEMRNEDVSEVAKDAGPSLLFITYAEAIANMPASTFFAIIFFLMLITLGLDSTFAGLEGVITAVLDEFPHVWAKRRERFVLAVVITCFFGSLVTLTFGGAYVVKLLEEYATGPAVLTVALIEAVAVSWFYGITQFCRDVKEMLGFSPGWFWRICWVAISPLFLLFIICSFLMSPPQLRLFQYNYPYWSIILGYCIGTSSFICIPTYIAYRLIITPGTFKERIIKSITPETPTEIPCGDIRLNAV
In short: as §1

[8] = target: T7, serotoninergic receptor 5-HT2C (Homo sapiens, UniProt P28335); experiment: Binding assay 5-HT2C (h), [3H]mesulergine, HEK-293 cells; settings: read-out: 5-HT2C [%]
T7 construct: expressed in transfected cells; host or cells: HEK-293 cells
T7 sequence (P28335 33-458): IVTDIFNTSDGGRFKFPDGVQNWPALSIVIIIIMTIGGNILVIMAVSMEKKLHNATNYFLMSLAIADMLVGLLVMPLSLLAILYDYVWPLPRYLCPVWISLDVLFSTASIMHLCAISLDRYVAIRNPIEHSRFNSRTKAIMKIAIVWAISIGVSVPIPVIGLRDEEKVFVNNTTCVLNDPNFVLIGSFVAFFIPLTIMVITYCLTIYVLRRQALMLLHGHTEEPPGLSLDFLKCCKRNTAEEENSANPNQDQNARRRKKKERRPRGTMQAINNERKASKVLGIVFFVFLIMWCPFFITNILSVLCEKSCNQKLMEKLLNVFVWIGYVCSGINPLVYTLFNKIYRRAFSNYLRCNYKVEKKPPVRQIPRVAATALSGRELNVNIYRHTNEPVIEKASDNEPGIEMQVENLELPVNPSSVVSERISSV
In short: as §1

[9] = target: serotoninergic 5-HT2A receptor (Homo sapiens, UniProt P28223); experiment: Binding assay 5-HT2A (h), [3H]ketanserin, HEK-293 cells; design: expressed in transfected cells; host or cells: HEK-293 cells; settings: read-out: 5-HT2A
Chain of serotoninergic 5-HT2A receptor (P28223 whole entry): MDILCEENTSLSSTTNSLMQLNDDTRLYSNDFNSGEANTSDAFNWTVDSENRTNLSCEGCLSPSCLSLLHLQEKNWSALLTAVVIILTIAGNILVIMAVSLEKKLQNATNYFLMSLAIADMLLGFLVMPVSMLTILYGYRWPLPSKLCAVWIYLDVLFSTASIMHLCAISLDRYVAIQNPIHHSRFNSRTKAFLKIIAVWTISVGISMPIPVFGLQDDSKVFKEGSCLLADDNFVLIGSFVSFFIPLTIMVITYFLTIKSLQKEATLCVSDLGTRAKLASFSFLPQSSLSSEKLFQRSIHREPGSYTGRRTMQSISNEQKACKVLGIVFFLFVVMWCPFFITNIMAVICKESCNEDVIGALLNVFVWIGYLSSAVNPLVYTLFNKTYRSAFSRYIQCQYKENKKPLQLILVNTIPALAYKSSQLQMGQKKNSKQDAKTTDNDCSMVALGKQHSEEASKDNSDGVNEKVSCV
In short: as §1

dopaminergic D2 receptor [10] = target: T8, dopaminergic D2 receptor (Homo sapiens, UniProt P14416); experiment: Binding assay D2S (h), [3H]methyl-spiperone, HEK-293 cells; design: expressed in transfected cells; host or cells: HEK-293 cells; settings: read-out: D2 [%]
In short: as §1
Target sequence in this assay (P14416 1-414 isoform P14416-2): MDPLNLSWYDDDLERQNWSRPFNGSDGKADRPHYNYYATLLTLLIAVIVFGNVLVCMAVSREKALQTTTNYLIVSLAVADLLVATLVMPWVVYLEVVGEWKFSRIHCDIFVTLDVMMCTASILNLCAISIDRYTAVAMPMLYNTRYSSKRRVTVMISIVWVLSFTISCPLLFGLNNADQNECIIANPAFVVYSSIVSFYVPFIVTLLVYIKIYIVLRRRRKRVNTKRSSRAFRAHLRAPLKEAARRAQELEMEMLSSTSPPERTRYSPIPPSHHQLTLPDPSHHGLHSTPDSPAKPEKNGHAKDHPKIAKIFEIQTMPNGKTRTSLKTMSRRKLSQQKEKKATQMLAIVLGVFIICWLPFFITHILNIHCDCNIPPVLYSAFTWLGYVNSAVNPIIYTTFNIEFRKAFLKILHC

[11] = target: T3, serotoninergic 5-HT1A receptor; experiment: Cellular functional assay, serotoninergic 5-HT1A receptor (agonism/antagonism); assay type: cell-based; settings: for inhibition at 1 µM: CHO, read-out: 5-HT1A-antag. [%]; for activation at 1 µM: agonist effect, percent of control specific agonist response (100 nM 8-OH-DPAT for control), 1×10^−6 M, 5-HT1A (h), CHO cells, read-out: 5-HT1A-ag [%]
Procedure: as §2, §3

dopaminergic D2 receptor [12] = target: T8, dopaminergic D2 receptor; experiment: Cellular functional assay, dopaminergic D2 receptor (agonism/antagonism); assay type: cell-based; settings: for inhibition at 1 µM: read-out: D2-antag. [%]
Procedure: as §2, §3

Chain of histaminergic H1 receptor (P35367 whole entry): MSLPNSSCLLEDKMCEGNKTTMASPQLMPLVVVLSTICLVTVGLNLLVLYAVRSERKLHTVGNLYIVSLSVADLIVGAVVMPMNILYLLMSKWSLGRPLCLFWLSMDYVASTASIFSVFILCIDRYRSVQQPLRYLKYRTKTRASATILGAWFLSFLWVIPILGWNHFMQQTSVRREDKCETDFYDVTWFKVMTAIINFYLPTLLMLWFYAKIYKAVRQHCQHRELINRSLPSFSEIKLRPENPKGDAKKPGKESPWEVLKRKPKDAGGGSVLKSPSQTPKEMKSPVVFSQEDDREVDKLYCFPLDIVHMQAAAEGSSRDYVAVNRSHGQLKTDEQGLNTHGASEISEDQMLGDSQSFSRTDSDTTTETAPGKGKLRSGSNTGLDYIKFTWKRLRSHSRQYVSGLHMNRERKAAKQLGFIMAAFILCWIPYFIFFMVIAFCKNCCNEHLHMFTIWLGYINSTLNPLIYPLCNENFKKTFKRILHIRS

SMILES	inhibition at 1 µM [1]	inhibition at 1 µM (muscarinic M3 receptor)	inhibition at 1 µM [2]	inhibition at 1 µM (dopaminergic D3 receptor)	inhibition at 1 µM [3]	inhibition at 1 µM [4]	hERG [%] (hERG potassium channels)	inhibition at 1 µM [5]	σ [%] (sigma σ receptor)	activation at 1 µM [6]	inhibition at 1 µM [6]	α1 [%] (adrenergic α1 receptor)	inhibition at 1 µM (adrenergic α2C receptor)	inhibition at 1 µM [7]	inhibition at 1 µM [8]	inhibition at 1 µM [9]	inhibition at 1 µM (dopaminergic D2 receptor [10])	also measured
O=S(=O)(NCCCN1CCN(c2nsc3ccccc23)CC1)c1cccc2ccccc12 [Compound 5, N-(3-(4-(1,2-Benzothiazol-3-yl)piperazin-1-yl)propyl)naphthalene-1-sulphonamide]	92%	7%	84%	98%	99%	98%	17%	18%	72%	-1%	85%	98%	99%	84%	81%	99%	96%	–
O=S(=O)(NCCCN1CCN(c2nsc3ccccc23)CC1)c1ccc2ccccc2c1 [Compound 6, N-(3-(4-(1,2-Benzothiazol-3-yl)piperazin-1-yl)propyl)naphthalene-2-sulphonamide]	93%	-1%	88%	97%	99%	98%	13%	26%	59%	0%	66%	95%	93%	95%	88%	100%	96%	–
O=S(=O)(NCCCCN1CCC(c2noc3cc(F)ccc23)CC1)c1cccc2ccccc12 [Compound 17, N-[4-[4-(6-Fluoro-1,2-benzoxazol-3-yl)piperidin-1-yl]butyl]naphthalene-1-sulphonamide]	80%	7%	99%	93%	84%	99%	24%	69%	–	–	95%	–	100%	44%	62%	100%	98%	activation at 1 µM ([5]; agonist effect, percent of control specific agonist response, compounds tested at 1×10^−6M, read-out: 5-HT6-ag [%]): 2%
O=S(=O)(NCCCCN1CCN(c2cccc3[nH]ccc23)CC1)c1ccc(F)c(F)c1 [Compound 29, 3,4-Difluoro-N-{4-[4-(1H-indol-4-yl)piperazin-1-yl]butyl}benzenesulphonamide]	74%	25%	37%	98%	99%	91%	–	–	93%	5%	9%	99%	98%	12%	11%	64%	94%	inhibition at 1 µM [11]: 26%; activation at 1 µM [11]: 71%; activation at 1 µM (dopaminergic D2 receptor [12]; HEK293, agonist effect, percent of control specific agonist response (3 μM dopamine for control), 1×10^−6 M, D2S (h), HEK-293 cells, read-out: D2-ag [%]): 45%; inhibition at 1 µM (dopaminergic D2 receptor [12]; HEK293): 99%
O=S(=O)(NCCCCN1CCN(c2cccc3[nH]ccc23)CC1)c1c[nH]c2ncccc12 [Compound 31, N-{4-[4-(1H-Indol-4-yl)piperazin-1-yl]butyl}-1H-pyrrolo[2,3-b]pyridine-3-sulphonamide]	–	–	18%	96%	82%	87%	2%	–	–	–	–	101%	–	-2%	–	36%	38%	–
O=S(=O)(NCCCCN1CCN(c2cccc3[nH]ccc23)CC1)c1ccc(C(F)(F)F)cc1 [Compound 360, N-[4-[4-(1H-Indol-4-yl)piperazin-1-yl]butyl]-4-(trifluoromethyl)benzenesulphonamide]	–	–	67%	100%	83%	100%	5%	–	–	–	–	93%	–	8%	–	67%	99%	–
Cc1[nH]c2ccc(Cl)cc2c1C1=CCN(CCNS(=O)(=O)c2cccc(Cl)c2)CC1 [Compound 452, 3-Chloro-N-[2-[4-(5-chloro-2-methyl-1H-indol-3-yl)-3,6-dihydro-2H-pyridin-1-yl]ethyl]-benzenesulphonamide]	–	–	108%	14%	–	41%	–	–	–	–	–	14%	–	18%	–	–	42%	inhibition at 1 µM [11]: 7%; activation at 1 µM [11]: 30%; activation at 1 µM (dopaminergic D2 receptor [12]; HEK293, read-out: D2-ag [%]): 24%; inhibition at 1 µM (dopaminergic D2 receptor [12]; HEK293): 53%
